# Data from patent publication US6060516A, “N^1 -propargylhydrazines, N^2 -propargylhydrazines and their analogs for the treatment of depression, anxiety and neurodegeneration” (CV Technologies, Inc., priority 1998, dated 2000).
# Columns and labels:
# [1] = tested on: valine, alanine and gamma-aminobutyric acid (GABA) concentrations in rat brain; test: Brain valine, alanine and gamma-aminobutyric acid (GABA) concentrations; format: in vivo; details: for GABA / Valine: 2 × 75 μmol/kg per os
# [2] = tested on: NA, DA, 5-HT, 5-HIAA and DOPAC concentrations in rat hypothalamus; test: Rat hypothalamus amine and amine metabolite concentrations; format: in vivo
# Method: The effects of various doses of CVT-P040 on the concentrations of hypothalamus amine neurotransmitters and their metabolites were evaluated by examining concentrations of noradrenaline (NA), dopamine (DA), 5-hydroxytryptamine (5-HT), 5-hydroxyindoleacetic acid (5-HIAA) and 3,4-dihydroxyphenylacetic acid (DOPAC) in rat hypothalami 5 hours after the injection of the drug. […] The brains were removed and divided in half. One half of the brain was frozen in isopentane on dry ice and retained for estimates of amino acid neurotransmitter concentrations. The other half had the hypothalamus removed and frozen on dry ice for later estimates of amines and their metabolites according to the method of Sloley, B. D. and Goldberg J. I. (1991), Determination of γ-glutamyl conjugates of monoamines by means of high-performance liquid chromatography with electrochemical detection and application to gastropod tissues, J. Chromatog. 567: 49-56. The rest of the brain was frozen on dry ice for ex vivo examination of MAO activity as described earlier.
# [3] = tested on: valine, alanine and gamma-aminobutyric acid (GABA) concentrations in rat brain; test: Brain valine, alanine and gamma-aminobutyric acid (GABA) concentrations; format: in vivo; details: for GABA / Valine: 150 μmol/kg, 5 hr, ip
# Method: Effects of various doses of CVT-P040, CVT-P041 and phenelzine on the concentrations of some brain amino acids were evaluated by examining concentrations of gamma-aminobutyric acid (GABA) 5 hours after the injection of the drug. Briefly, rats were injected with CVT-P040 ([…]), vehicle, or phenelzine (150 μmol/kg) and killed 3 or 5 hours later. The brains were removed and divided in half. One half of the brain was frozen in isopentane on dry ice and retained for estimates of GABA concentrations. GABA and other amino acid concentrations were estimated using the method of Wong, J. T. F., Baker, G. B. and Coutts, R. T. (1990), A rapid, sensitive assay for γ-aminobutyric acid in brain using electron-capture gas chromatography, Res. Comm. Chem. Path. Pharmacol. 70: 115-122.
# [4] = tested on: rat brain and liver monoamine oxidase-B; test: Monoamine oxidase-B inhibiting activity ex vivo; format: in vivo
# Method: Radiolabelled β-phenylethylamine was employed as a substrate for monoamine oxidase-B. The compounds of interest were either injected intraperitoneally in DMSO or administered by gavage in water for various periods. The animals were killed by decapitation and the brains and livers immediately removed and frozen until assayed for monoamine oxidase-B activity. Tissues were homogenized and appropriately diluted in buffer prior to incubation. Incubations proceeded at 37° C. for 10 minutes. Incubation was terminated by the addition of acid and the radiolabelled product (phenylacetic acid) was extracted and quantified by liquid scintillation counting procedures. Incubations were done in triplicate and incubations containing phenelzine were included for comparison. The percent inhibition of monoamine oxidase-B activity compared to controls containing no drug was calculated.
# Values are the mean ± the standard error based on (n) determinations.
# Oral doses were administered as 75 μmol/kg on day 1, 75 μmol/kg on
# day 2 and the animals were killed 5 hours later.
# [5] = biological target: T1, rat brain monoamine oxidase-A (Rattus norvegicus, UniProt P21396); test: Monoamine oxidase-A inhibiting activity in vitro (radiochemical, 5-hydroxytryptamine substrate, rat brain homogenate); format: biochemical; details: for inhibition at 100 µM: 1 × 10^-4 M; for inhibition at 10 µM: 1 × 10^-5 M; for inhibition at 1 µM: 1 × 10^-6 M; for inhibition at 0.1 µM: 1 × 10^-7 M; for inhibition at 0.01 µM: 1 × 10^-8 M
# T1 construct: appropriately diluted homogenates of rat brain or liver; from tissue; host or cells: rat brain or liver homogenate
# T1 sequence (P21396 1-526): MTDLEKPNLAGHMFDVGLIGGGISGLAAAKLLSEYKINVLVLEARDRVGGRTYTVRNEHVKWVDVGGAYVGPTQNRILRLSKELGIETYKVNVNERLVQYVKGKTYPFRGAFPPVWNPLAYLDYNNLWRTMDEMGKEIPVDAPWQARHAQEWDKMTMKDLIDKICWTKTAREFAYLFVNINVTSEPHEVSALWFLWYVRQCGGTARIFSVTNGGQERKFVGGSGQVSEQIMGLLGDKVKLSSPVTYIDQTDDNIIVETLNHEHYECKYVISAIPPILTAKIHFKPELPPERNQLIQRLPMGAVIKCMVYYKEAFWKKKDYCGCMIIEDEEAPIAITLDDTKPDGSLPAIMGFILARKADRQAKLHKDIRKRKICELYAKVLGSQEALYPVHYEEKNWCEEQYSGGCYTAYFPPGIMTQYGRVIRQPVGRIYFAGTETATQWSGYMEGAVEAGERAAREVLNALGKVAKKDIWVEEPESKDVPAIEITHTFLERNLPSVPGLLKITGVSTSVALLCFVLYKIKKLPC
# Method: Radiolabelled 5-hydroxytryptamine was used as the substrate for monoamine oxidase-A. Various concentrations of the compounds were incubated in appropriately diluted homogenates of rat brain or liver in a 0.2 M potassium phosphate buffer. Incubations proceeded at 37° C. for 10 minutes. Incubation was terminated by the addition of acid and the radiolabelled product (5-hydroxyindoleacetic acid) was extracted and quantified by liquid scintillation counting procedures. Incubations were done in triplicate and incubations containing phenelzine were included for comparison. The percent inhibition of monoamine oxidase-A activity compared to controls without the compounds of the present invention was calculated.
# [6] = brain, 5.75 μmol/kg, 5 hr, i.p. in 10% DMSO (Table 4, MAO-B by title)
# [7] = brain, 150 μmol/kg, 5 hr, i.p. in 10% DMSO (Table 4, MAO-B by title)
# [8] = brain, 2 × 75 μmol/kg per os (Table 4, MAO-B by title)
# [9] = liver, 5.75 μmol/kg, 5 hr, i.p. in 10% DMSO (Table 4, MAO-B by title)
# [10] = liver, 2 × 75 μmol/kg per os (Table 4, MAO-B by title)
structure (smiles),measurement,setting,value
"C#CCN(N)CCc1ccccc1 [CVT-P040, N^1 -propargylphenelzine]",GABA,[1],329 ± 43 µg/g
same,Valine,[1],25.4 ± 1.8 µg/g
same,5-HIAA,"[2]; 0.58 μmol/kg, 5 hr, ip",350 ± 28 ng/g
same,5-HT,"[2]; 0.58 μmol/kg, 5 hr, ip",652 ± 69 ng/g
same,DA,"[2]; 0.58 μmol/kg, 5 hr, ip",716 ± 82 ng/g
same,DOPAC,"[2]; 0.58 μmol/kg, 5 hr, ip",77 ± 9 ng/g
same,NA,"[2]; 0.58 μmol/kg, 5 hr, ip",1155 ± 81 ng/g
same,5-HIAA,"[2]; 5.75 μmol/kg, 5 hr, ip",327 ± 26 ng/g
same,5-HT,"[2]; 5.75 μmol/kg, 5 hr, ip",634 ± 58 ng/g
same,DA,"[2]; 5.75 μmol/kg, 5 hr, ip",717 ± 85 ng/g
same,DOPAC,"[2]; 5.75 μmol/kg, 5 hr, ip",80 ng/g
same,NA,"[2]; 5.75 μmol/kg, 5 hr, ip",1332 ± 98 ng/g
same,5-HIAA,"[2]; 57.5 μmol/kg, 5 hr, ip",294 ± 22 ng/g
same,5-HT,"[2]; 57.5 μmol/kg, 5 hr, ip",1324 ng/g
same,DA,"[2]; 57.5 μmol/kg, 5 hr, ip",753 ± 99 ng/g
same,DOPAC,"[2]; 57.5 μmol/kg, 5 hr, ip",49 ng/g
same,NA,"[2]; 57.5 μmol/kg, 5 hr, ip",1672 ± 82 ng/g
same,5-HIAA,"[2]; 150 μmol/kg, 5 hr, ip",131 ± 8 ng/g
same,5-HT,"[2]; 150 μmol/kg, 5 hr, ip",1497 ng/g
same,DA,"[2]; 150 μmol/kg, 5 hr, ip",522 ± 28 ng/g
same,DOPAC,"[2]; 150 μmol/kg, 5 hr, ip",45 ± 4 ng/g
same,NA,"[2]; 150 μmol/kg, 5 hr, ip",2050 ± 202 ng/g
same,5-HIAA,"[2]; 173 μmol/kg, 5 hr, ip",148 ± 10 ng/g
same,5-HT,"[2]; 173 μmol/kg, 5 hr, ip",1509 ng/g
same,DA,"[2]; 173 μmol/kg, 5 hr, ip",865 ± 19 ng/g
same,DOPAC,"[2]; 173 μmol/kg, 5 hr, ip",30 ng/g
same,NA,"[2]; 173 μmol/kg, 5 hr, ip",1867 ± 253 ng/g
same,5-HIAA,[2]; 2 × 75 μmol/kg per os,197 ng/g
same,5-HT,[2]; 2 × 75 μmol/kg per os,1215 ± 36 ng/g
same,DA,[2]; 2 × 75 μmol/kg per os,487 ± 47 ng/g
same,DOPAC,[2]; 2 × 75 μmol/kg per os,50 ± 3 ng/g
same,NA,[2]; 2 × 75 μmol/kg per os,2230 ± 101 ng/g
same,5-HIAA concentrations,"[2]; dose dependent, in words",significantly reduced 5-HIAA and DOPAC concentrations
same,5-HT concentrations,"[2]; dose dependent, in words",significantly elevated 5-HT and NA concentrations
same,DOPAC concentrations,"[2]; dose dependent, in words",significantly reduced 5-HIAA and DOPAC concentrations
same,NA concentrations,"[2]; dose dependent, in words",significantly elevated 5-HT and NA concentrations
same,reduction in 5-hydroxyindoleacetic acid concentrations compared with phenelzine,"[2]; equivalent doses, in words",comparable to that determined with equivalent doses of phenelzine
same,GABA,[3],270 ± 23 µg/g
same,Valine,[3],22.9 ± 1.4 µg/g
same,GABA concentrations,"[3]; doses as high as 150 μmol/kg, in words",did not elevate GABA concentrations
same,elevation of alanine,[3]; in words,elevation of alanine was not seen
same,% Inhibition of Monoamine Oxidase-B,"[4]; brain, 0.58 μmol/kg, 5 hr, i.p. in 10% DMSO (Table 4, MAO-B by title)",-4.7 ± 2.0%
same,% Inhibition of Monoamine Oxidase-B,[4]; [6],11.8 ± 5.1%
same,% Inhibition of Monoamine Oxidase-B,"[4]; brain, 57.5 μmol/kg, 5 hr, i.p. in 10% DMSO (Table 4, MAO-B by title)",66.1 ± 6.9%
same,% Inhibition of Monoamine Oxidase-B,[4]; [7],85.5 ± 1.7%
same,% Inhibition of Monoamine Oxidase-B,"[4]; brain, 173 μmol/kg, 5 hr, i.p. in 10% DMSO (Table 4, MAO-B by title)",93.2 ± 0.8%
same,% Inhibition of Monoamine Oxidase-B,[4]; [8],85.4 ± 2.1%
same,% Inhibition of Monoamine Oxidase-B,"[4]; liver, 0.58 μmol/kg, 5 hr, i.p. in 10% DMSO (Table 4, MAO-B by title)",1.1 ± 5.4%
same,% Inhibition of Monoamine Oxidase-B,[4]; [9],29.3 ± 2.8%
same,% Inhibition of Monoamine Oxidase-B,"[4]; liver, 57.5 μmol/kg, 5 hr, i.p. in 10% DMSO (Table 4, MAO-B by title)",64.0 ± 5.5%
same,% Inhibition of Monoamine Oxidase-B,"[4]; liver, 173 μmol/kg, 5 hr, i.p. in 10% DMSO (Table 4, MAO-B by title)",87.9 ± 1.0%
same,% Inhibition of Monoamine Oxidase-B,[4]; [10],82.3 ± 2.3%
same,inhibition at 100 µM,[5],99.5%
same,inhibition at 10 µM,[5],99.1%
same,inhibition at 1 µM,[5],71.1%
same,inhibition at 0.1 µM,[5],20.6%
same,inhibition at 0.01 µM,[5],0.7%
"NNCCc1ccccc1 [phenelzine, 1-(2-phenyl) ethylhydrazine, reference compound]",GABA,[1],733 µg/g
same,Valine,[1],24.3 ± 0.8 µg/g
same,elevation of alanine levels,[1]; phenelzine,about 4 fold
same,brain GABA concentrations,"[1]; phenelzine 150 pmol/kg (so in the source), in words",caused elevations in brain GABA concentrations
same,5-HIAA,"[2]; 5.75 μmol/kg, 5 hr, ip",334 ± 23 ng/g
same,5-HT,"[2]; 5.75 μmol/kg, 5 hr, ip",755 ng/g
same,DA,"[2]; 5.75 μmol/kg, 5 hr, ip",544 ± 66 ng/g
same,DOPAC,"[2]; 5.75 μmol/kg, 5 hr, ip",89 ± 7 ng/g
same,NA,"[2]; 5.75 μmol/kg, 5 hr, ip",1468 ± 119 ng/g
same,5-HIAA,"[2]; 150 μmol/kg, 5 hr, ip",131 ng/g
same,5-HT,"[2]; 150 μmol/kg, 5 hr, ip",1583 ± 95 ng/g
same,DA,"[2]; 150 μmol/kg, 5 hr, ip",385 ng/g
same,DOPAC,"[2]; 150 μmol/kg, 5 hr, ip",51 ± 4 ng/g
same,NA,"[2]; 150 μmol/kg, 5 hr, ip",2113 ± 102 ng/g
same,5-HIAA,[2]; 2 × 75 μmol/kg per os,167 ng/g
same,DOPAC,[2]; 2 × 75 μmol/kg per os,54 ± 4 ng/g
same,NA,[2]; 2 × 75 μmol/kg per os,2148 ± 171 ng/g
same,GABA,[3],773 ± 37 µg/g
same,Valine,[3],22.9 ± 0.4 µg/g
same,% Inhibition of Monoamine Oxidase-B,[4]; [6],-2.7 ± 5.6%
same,% Inhibition of Monoamine Oxidase-B,[4]; [7],83.3 ± 2.3%
same,% Inhibition of Monoamine Oxidase-B,[4]; [8],76.4 ± 3.4%
same,% Inhibition of Monoamine Oxidase-B,[4]; [9],18.1 ± 5.8%
same,% Inhibition of Monoamine Oxidase-B,[4]; [10],95.6 ± 1.0%
same,inhibition at 100 µM,[5],100%
same,inhibition at 10 µM,[5],100%
same,inhibition at 1 µM,[5],98.9%
same,inhibition at 0.1 µM,[5],62.9%
same,inhibition at 0.01 µM,[5],6.9%
